# Measured values: ChEMBL document CHEMBL4052799, “Discovery of orally bioavailable cyclohexanol-based NR2B-selective NMDA receptor antagonists with analgesic activity utilizing a scaffold hopping approach” (Bioorg Med Chem Lett, 2017)
# Columns and labels:
# [1] = molecular target: Glutamate receptor ionotropic, NMDA 2B (Mus musculus, UniProt P35438+Q01097); assay: Antagonist activity at mouse NR2B expressed in Hek293 cells co-expressing mouse NR1 assessed as inhibition of glutamic acid/glycine-induced intracellular Ca2+ levels measured after 1 day post induction by Fluo-3/AM dye-based fluorescence assay; type: cell-based
# Sequence of Glutamate receptor ionotropic, NMDA 2B (Mus musculus, UniProt P35438+Q01097) (Q01097 whole entry, one chain of several): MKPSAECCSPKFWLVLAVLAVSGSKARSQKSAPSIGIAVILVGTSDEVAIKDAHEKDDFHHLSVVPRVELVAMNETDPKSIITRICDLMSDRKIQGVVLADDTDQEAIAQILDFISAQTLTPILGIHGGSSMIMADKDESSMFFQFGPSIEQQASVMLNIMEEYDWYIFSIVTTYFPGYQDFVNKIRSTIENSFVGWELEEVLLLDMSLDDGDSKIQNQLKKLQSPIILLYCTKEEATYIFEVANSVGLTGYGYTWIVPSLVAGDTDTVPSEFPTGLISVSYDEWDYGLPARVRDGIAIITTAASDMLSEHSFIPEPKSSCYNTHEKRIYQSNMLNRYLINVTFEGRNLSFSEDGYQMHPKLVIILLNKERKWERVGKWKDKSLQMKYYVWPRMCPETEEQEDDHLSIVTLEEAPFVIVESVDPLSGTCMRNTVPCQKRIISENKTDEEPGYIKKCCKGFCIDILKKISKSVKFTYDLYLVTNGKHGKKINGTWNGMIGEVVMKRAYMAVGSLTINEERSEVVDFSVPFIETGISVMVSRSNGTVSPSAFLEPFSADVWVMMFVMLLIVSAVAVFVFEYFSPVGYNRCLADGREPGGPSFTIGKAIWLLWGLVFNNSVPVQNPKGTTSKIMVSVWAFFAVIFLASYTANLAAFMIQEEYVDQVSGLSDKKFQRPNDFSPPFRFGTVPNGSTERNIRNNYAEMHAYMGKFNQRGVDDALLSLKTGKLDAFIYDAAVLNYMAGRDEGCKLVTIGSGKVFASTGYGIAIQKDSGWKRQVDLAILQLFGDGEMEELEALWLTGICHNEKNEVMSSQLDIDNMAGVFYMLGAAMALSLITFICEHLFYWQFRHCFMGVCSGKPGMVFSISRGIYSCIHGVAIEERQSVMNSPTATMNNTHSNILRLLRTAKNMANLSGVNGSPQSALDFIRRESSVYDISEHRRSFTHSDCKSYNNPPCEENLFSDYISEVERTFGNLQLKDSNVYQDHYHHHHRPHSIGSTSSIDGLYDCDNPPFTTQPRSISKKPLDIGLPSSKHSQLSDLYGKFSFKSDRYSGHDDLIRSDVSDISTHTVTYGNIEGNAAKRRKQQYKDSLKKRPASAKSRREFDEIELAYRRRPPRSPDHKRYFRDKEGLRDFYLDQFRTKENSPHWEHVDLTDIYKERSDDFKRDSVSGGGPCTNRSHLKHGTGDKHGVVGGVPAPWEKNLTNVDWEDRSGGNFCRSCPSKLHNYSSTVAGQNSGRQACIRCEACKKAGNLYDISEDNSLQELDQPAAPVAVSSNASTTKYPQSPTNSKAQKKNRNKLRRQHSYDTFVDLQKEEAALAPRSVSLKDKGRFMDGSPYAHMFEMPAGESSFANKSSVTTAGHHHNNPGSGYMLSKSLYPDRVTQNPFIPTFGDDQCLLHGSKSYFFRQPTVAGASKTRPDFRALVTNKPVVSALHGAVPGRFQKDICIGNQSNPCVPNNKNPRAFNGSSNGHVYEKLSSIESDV
# [2] = Oral bioavailability in Sprague-Dawley rat at 1 mg/kg administered through cassette dosing; type: ADME, organism-based; details: in vivo
# [3] = Total clearance in Sprague-Dawley rat at 0.5 mg/kg, iv or 1 mg/kg, po administered through cassette dosing; type: ADME, organism-based; details: in vivo
# [4] = Ratio of drug level in brain to plasma in Sprague-Dawley rat at 0.5 mg/kg, iv administered through cassette dosing measured after 0.5 hrs; type: ADME, organism-based; details: brain and plasma
# [5] = molecular target: Glutamate receptor ionotropic, NMDA 2B (Rattus norvegicus, UniProt Q00960); assay: Displacement of [3H]-ifenprodil from NR2B in Wistar rat brain membrane after 120 mins by liquid scintillation counting analysis; type: cell membranes
# Sequence of Glutamate receptor ionotropic, NMDA 2B (Rattus norvegicus, UniProt Q00960) (Q00960 whole entry): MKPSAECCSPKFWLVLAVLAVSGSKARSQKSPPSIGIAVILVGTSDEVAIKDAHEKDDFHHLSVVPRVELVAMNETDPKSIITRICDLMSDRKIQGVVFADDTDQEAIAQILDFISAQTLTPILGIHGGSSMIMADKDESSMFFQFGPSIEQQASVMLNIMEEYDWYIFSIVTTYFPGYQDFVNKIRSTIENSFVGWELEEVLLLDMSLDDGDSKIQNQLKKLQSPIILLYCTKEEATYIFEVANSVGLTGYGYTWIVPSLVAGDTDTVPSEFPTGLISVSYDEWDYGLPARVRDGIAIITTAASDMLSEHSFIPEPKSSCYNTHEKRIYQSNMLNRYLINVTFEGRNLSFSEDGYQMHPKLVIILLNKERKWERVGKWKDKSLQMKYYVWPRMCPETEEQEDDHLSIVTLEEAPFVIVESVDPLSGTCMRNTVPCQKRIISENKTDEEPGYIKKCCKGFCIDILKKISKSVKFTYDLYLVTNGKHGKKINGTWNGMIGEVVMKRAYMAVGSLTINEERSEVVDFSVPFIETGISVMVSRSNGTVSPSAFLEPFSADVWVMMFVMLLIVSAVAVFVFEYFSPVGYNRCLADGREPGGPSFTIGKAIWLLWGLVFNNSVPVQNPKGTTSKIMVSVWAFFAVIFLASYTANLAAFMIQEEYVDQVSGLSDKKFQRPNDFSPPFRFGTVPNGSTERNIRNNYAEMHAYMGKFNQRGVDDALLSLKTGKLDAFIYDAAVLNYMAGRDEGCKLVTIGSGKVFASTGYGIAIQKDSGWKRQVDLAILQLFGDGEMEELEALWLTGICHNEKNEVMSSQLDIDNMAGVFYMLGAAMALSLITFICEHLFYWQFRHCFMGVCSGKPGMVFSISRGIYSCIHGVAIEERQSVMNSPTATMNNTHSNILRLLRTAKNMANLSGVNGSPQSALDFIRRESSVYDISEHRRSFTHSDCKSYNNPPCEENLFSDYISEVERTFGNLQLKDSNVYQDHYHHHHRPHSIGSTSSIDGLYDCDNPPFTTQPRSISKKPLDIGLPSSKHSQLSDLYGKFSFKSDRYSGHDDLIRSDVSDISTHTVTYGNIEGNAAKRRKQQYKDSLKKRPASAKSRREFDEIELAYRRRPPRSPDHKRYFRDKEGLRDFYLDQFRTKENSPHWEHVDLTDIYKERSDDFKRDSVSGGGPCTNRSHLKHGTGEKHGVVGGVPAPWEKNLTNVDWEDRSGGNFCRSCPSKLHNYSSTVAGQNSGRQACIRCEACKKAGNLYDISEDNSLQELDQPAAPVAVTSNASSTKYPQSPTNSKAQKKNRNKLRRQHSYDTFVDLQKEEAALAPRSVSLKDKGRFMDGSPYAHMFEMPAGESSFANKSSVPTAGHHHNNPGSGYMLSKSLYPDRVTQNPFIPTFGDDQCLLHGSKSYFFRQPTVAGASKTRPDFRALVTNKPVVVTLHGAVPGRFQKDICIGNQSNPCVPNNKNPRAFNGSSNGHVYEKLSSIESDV
# [6] = molecular target: hERG (KCNH2) (Homo sapiens, UniProt Q12809); assay: Inhibition of human ERG expressed in HEK293 cells at 1 uM after 10 mins by whole cell patch clamp method relative to control; type: cell-based; details: HEK293 cells that express hERG
# Sequence of hERG (KCNH2) (Q12809 whole entry): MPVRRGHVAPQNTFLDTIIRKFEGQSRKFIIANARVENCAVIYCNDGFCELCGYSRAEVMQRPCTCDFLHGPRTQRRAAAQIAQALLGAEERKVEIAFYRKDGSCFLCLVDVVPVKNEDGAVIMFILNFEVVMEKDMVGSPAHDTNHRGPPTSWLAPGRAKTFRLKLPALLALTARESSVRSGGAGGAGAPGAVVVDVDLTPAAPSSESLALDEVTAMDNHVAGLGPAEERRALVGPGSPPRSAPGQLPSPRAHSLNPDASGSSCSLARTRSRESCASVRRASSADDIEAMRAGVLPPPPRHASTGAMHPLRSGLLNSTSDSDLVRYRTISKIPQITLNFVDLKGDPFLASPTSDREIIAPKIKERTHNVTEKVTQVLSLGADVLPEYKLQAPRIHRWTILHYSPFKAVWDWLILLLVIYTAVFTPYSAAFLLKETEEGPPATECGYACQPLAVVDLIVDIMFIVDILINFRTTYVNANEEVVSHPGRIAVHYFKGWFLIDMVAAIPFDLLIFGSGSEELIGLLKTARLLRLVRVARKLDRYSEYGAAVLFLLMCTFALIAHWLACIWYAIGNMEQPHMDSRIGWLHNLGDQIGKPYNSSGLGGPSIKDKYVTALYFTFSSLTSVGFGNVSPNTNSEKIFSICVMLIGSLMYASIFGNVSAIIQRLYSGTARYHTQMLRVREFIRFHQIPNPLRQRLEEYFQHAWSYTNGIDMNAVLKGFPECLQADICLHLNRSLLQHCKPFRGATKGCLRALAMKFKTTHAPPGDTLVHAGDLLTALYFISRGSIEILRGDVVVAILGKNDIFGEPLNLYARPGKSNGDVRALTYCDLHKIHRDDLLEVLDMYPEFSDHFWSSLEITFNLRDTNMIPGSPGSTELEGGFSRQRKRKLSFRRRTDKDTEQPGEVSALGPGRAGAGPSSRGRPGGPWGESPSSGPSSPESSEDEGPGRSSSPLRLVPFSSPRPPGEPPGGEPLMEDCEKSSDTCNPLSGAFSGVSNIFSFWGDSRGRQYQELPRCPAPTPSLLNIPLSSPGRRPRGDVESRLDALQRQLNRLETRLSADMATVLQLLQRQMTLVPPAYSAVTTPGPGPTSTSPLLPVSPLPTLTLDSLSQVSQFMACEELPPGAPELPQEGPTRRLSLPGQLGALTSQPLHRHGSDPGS
# [7] = tested on: Mus musculus; assay: Analgesic activity in po dosed formalin-induced chronic pain ICR mouse model assessed as reduction in rate of licking time in early phase at 30 mg/kg administered 30 min prior to formalin challenge measured during first 5 mins post formalin challenge relative to control; type: functional
# [8] = tested on: Mus musculus; assay: Analgesic activity in po dosed formalin-induced chronic pain ICR mouse model assessed as reduction in rate of licking time in late phase at 30 mg/kg administered 30 min prior to formalin challenge measured during 10 to 30 mins post formalin challenge relative to control; type: functional
# [9] = tested on: Mus musculus; assay: Analgesic activity in po dosed formalin-induced chronic pain ICR mouse model assessed as reduction in rate of licking time in late phase at 50 mg/kg administered 30 min prior to formalin challenge measured during 10 to 30 mins post formalin challenge relative to control; type: functional
# [10] = tested on: Mus musculus; assay: Analgesic activity in po dosed formalin-induced chronic pain ICR mouse model assessed as reduction in rate of licking time in early phase at 50 mg/kg administered 30 min prior to formalin challenge measured during first 5 mins post formalin challenge relative to control; type: functional
Compound,IC50 [1],bioavailability [2],clearance [3],Kp at 0.5 h [4],IC50 [5],"inhibition at 10 min, 1 µM [6]",inhibition in vivo at 30 mg/kg [7],inhibition in vivo at 30 mg/kg [8],inhibition in vivo at 50 mg/kg [9],inhibition in vivo at 50 mg/kg [10]
O=C(C[C@]1(O)CC[C@@H](Cc2ccc(F)c(F)c2)CC1)Nc1ccc2[nH]c(=O)oc2c1,2 nM,12.1%,35.7 mL/min/kg,0.14,25.1 nM,,,,,
O=c1ccc(-c2nc(C[C@]3(O)CC[C@@H](Cc4ccc(Cl)cc4)CC3)no2)c[nH]1,158 nM,,,,126 nM,,,,,
O=C(C[C@]1(O)CC[C@@H](Cc2ccc(C(F)(F)F)cc2)CC1)Nc1ccc2[nH]c(=O)oc2c1,6.31 nM,,,,25.1 nM,,,,,
O=c1ccc(-c2cc(C[C@]3(O)CC[C@@H](Cc4ccccc4)CC3)no2)c[nH]1,10 nM,53.1%,37.6 mL/min/kg,0.34,25.1 nM,4.4%,,,,
O[C@]1(Cc2cc(-c3cn[nH]c3)on2)CC[C@H](Cc2ccc(C(F)(F)F)cc2)CC1,12.6 nM,67.5%,4 mL/min/kg,2.66,100 nM,,84.8%,96.5%,,
O=C(C[C@]1(O)CC[C@H](Cc2ccccc2)CC1)Nc1ccc2[nH]c(=O)oc2c1,15.8 nM,33%,35.1 mL/min/kg,0.9,31.6 nM,7.7%,,,,
O=C(C[C@]1(O)CC[C@@H](Cc2ccc(Cl)cc2)CC1)Nc1ccc2[nH]c(=O)oc2c1,3.16 nM,,,,25.1 nM,,,,,
O=c1[nH]c2ccc(-c3cc(C[C@]4(O)CC[C@@H](Cc5ccc(Cl)cc5)CC4)no3)cc2o1,39.8 nM,,,,200 nM,,,,,
O[C@]1(Cc2cc(-c3cn[nH]c3)on2)CC[C@H](Cc2ccc(F)c(F)c2)CC1,39.8 nM,67.5%,15.2 mL/min/kg,1.99,79.4 nM,15%,,,,
O=C1Cc2cc(NC(=O)C[C@]3(O)CC[C@@H](Cc4ccccc4)CC3)ccc2N1,15.8 nM,28.2%,16.5 mL/min/kg,0.11,31.6 nM,12.1%,,,,
O[C@]1(Cc2cc(-c3cn[nH]c3)on2)CC[C@H](Cc2ccc(Cl)cc2)CC1,6.31 nM,72.8%,11.7 mL/min/kg,1.31,39.8 nM,32%,,,,
O=c1[nH]c2ccc(-c3cc(C[C@]4(O)CC[C@@H](Cc5ccccc5)CC4)no3)cc2o1,15.8 nM,8.4%,12.1 mL/min/kg,0.92,100 nM,,,,,
O=c1ccc(-c2cc(C[C@]3(O)CC[C@@H](Cc4ccc(Cl)cc4)CC3)no2)c[nH]1,1 nM,37.2%,16.8 mL/min/kg,0.08,25.1 nM,23%,,,,
O=C(C[C@]1(O)CC[C@@H](Cc2ccccc2)CC1)Nc1ccc2[nH]ncc2c1,39.8 nM,23.7%,21.5 mL/min/kg,0.9,63.1 nM,18%,,,74.4%,59.5%
O[C@]1(Cc2cc(-c3cn[nH]c3)on2)CC[C@@H](Cc2ccc(Cl)cc2)CC1,200 nM,,,,631 nM,,,,,
O=C(C[C@]1(O)CC[C@@H](Cc2ccc(F)cc2)CC1)Nc1ccc2[nH]c(=O)oc2c1,0.631 nM,42.4%,36.8 mL/min/kg,0.12,25.1 nM,26.1%,,,,
O=C(C[C@]1(O)CC[C@@H](Cc2ccc(OC(F)(F)F)cc2)CC1)Nc1ccc2[nH]c(=O)oc2c1,3.16 nM,53.4%,21 mL/min/kg,0.15,50.1 nM,,,,,
COc1ccc(C[C@H]2CC[C@](O)(Cc3cc(-c4cn[nH]c4)on3)CC2)cc1,25.1 nM,23.7%,61.8 mL/min/kg,1.64,39.8 nM,,,,,
O=C(C[C@]1(O)CC[C@@H](Cc2ccccc2)CC1)Nc1ccc2[nH]c(=O)oc2c1,0.631 nM,47.4%,34.1 mL/min/kg,0.25,15.8 nM,13.2%,,,66.7%,58.1%
COc1ccc(C[C@H]2CC[C@](O)(CC(=O)Nc3ccc4[nH]c(=O)oc4c3)CC2)cc1,1 nM,16%,45.9 mL/min/kg,0.11,63.1 nM,,,,,
O[C@]1(Cc2cc(-c3cn[nH]c3)on2)CC[C@H](Cc2ccc(OC(F)(F)F)cc2)CC1,25.1 nM,121%,6.2 mL/min/kg,2.51,79.4 nM,,76.8%,95.4%,,
O[C@]1(Cc2cc(-c3cn[nH]c3)on2)CC[C@H](Cc2ccccc2)CC1,15.8 nM,46.3%,56.5 mL/min/kg,1.44,39.8 nM,14%,,,,
O=c1ccc(-c2cc(C[C@]3(O)CC[C@H](Cc4ccc(Cl)cc4)CC3)no2)c[nH]1,63.1 nM,38.7%,6.6 mL/min/kg,0.47,316 nM,29.2%,,,,
O=C1CCc2cc(NC(=O)C[C@]3(O)CC[C@@H](Cc4ccccc4)CC3)ccc2N1,10 nM,53.4%,24.4 mL/min/kg,0.18,31.6 nM,11.3%,,,25.7%,1.5%
O[C@]1(Cc2cc(-c3cn[nH]c3)on2)CC[C@H](Cc2ccc(F)cc2)CC1,12.6 nM,78%,30 mL/min/kg,1.62,12.6 nM,22.5%,,,,
O=C(C[C@]1(O)CC[C@H](Cc2ccc(F)cc2)CC1)Nc1ccc2[nH]c(=O)oc2c1,15.8 nM,58%,42.3 mL/min/kg,0.23,39.8 nM,12.2%,,,,
O=C(Nc1ccc2[nH]c(=O)oc2c1)C(=O)N1CCC(Cc2ccc(F)cc2)CC1 [RADIPRODIL],3.16 nM,30%,37.1 mL/min/kg,1,31.6 nM,,,,,
